Data taken from paper PMC10976095 (Vaccines, 2024).
Where a SMILES comes first, the peptide text is derived from it.

What was measured:
HLA-A*24:02 = HLA-A*24:02 (Homo sapiens, UniProt P04439, D101N/D140Y/D185E/E176V/E190D/F33S/G103R/G107R/I119L/I121M/I306V/K335N/L105A/L180Q/L300P/N151K/N90K/Q86E/Q94H/R106L/R138H/R89G/T104I/T345S/V100E/W191G/Y123F); assay: biochemical; format: binding
HLA-B*07:02 = HLA-B*07:02 (Homo sapiens, UniProt P01889); assay: biochemical; format: binding
HLA-A*32:01 = HLA-A*32:01 (Homo sapiens, UniProt P04439, A270S/D101S/D185E/E176V/E277Q/F133L/G103R/G107R/G231S/H175R/I121M/I218V/I322F/K168Q/L105A/L300P/L318F/M331R/P208A/P217A/Q94H/R106L/R138Q/S129P/T104I/T323A/T345S/V100E/V321M/V358M); assay: biochemical; format: binding
HLA-A*02:03 = HLA-A*02:03 (Homo sapiens, UniProt P04439, A173T/D140Y/D185E/D98H/E277Q/G131W/G231S/I119V/I121R/I166T/I218V/L180W/L300P/L318F/N151K/N90K/P208A/P217A/Q86G/Q94H/R138H/R169H/T345S); assay: biochemical; format: binding
HLA-A*68:02 = HLA-A*68:02 (Homo sapiens, UniProt P04439, A269V/D140Y/D185E/E176V/E277Q/E87N/F33Y/G231S/I121R/I166T/I218V/L180W/L300P/L318F/N151K/P208A/P217A/Q86R/R138H/R169H/S129P/T345S/V36M); assay: biochemical; format: binding
HLA-A*02:06 = HLA-A*02:06 (Homo sapiens, UniProt P04439, D140Y/D185E/D98H/E176V/E277Q/F33Y/G131W/G231S/I119V/I121R/I166T/I218V/L300P/L318F/N151K/N90K/P208A/P217A/Q86G/Q94H/R138H/R169H/T345S); assay: biochemical; format: binding
HLA-A*02:01 = HLA-A*02:01 (Homo sapiens, UniProt P04439, D140Y/D185E/D98H/E176V/E277Q/G131W/G231S/I119V/I121R/I166T/I218V/L300P/L318F/N151K/N90K/P208A/P217A/Q86G/Q94H/R138H/R169H/T345S); assay: biochemical; format: binding
[1] = tested on: Mafa-A63:02 MHC class I molecules; format: binding, Macaca fascicularis
HLA-A*03:01 = HLA-A*03:01 (Homo sapiens, UniProt P04439); assay: biochemical; format: binding
HLA-A*30:01 = HLA-A*30:01 (Homo sapiens, UniProt P04439, D140H/D185E/E176W/F33S/G80R/H175R/K168Q/R138E/R41S); assay: biochemical; format: binding
HLA-B*44:02 = HLA-B*44:02 (Homo sapiens, UniProt P01889, A223V/A65T/A93T/A95T/D201E/D98Y/E176V/E187L/E204Q/E69K/G107R/H137Y/K202T/L105A/L119I/N104T/N87E/Q56L/Q94N/R106L/R155S/R180D/S101N/S121R/S35A/S48T/T118I/V36M/W191S/Y140D/Y91S); assay: biochemical; format: binding
HLA-B*40:01 = HLA-B*40:01 (Homo sapiens, UniProt P01889, A65T/A93T/A95T/D138N/D98Y/E176V/E69K/N87E/Q56L/Q94N/R180L/S121R/S35A/S48T/T167S/V36M/W171L/Y33H/Y91S); assay: biochemical; format: binding
HLA-A*23:01 = HLA-A*23:01 (Homo sapiens, UniProt P04439, D101N/D140Y/D185E/E176V/E190D/F33S/G103R/G107R/H175R/I119L/I121M/I306V/K168Q/K335N/L105A/L300P/N151K/N90K/P307H/Q86E/Q94H/R106L/R138H/R89G/T104I/T345S/V100E/W191G/Y123F); assay: biochemical; format: binding
HLA-B*15:01 = HLA-B*15:01 (Homo sapiens, UniProt P01889, A329T/A93T/A95T/C349S/D201E/D98Y/E187L/E204Q/E69M/E70A/K202T/N87E/Q94N/R155S/R180W/S121R/S35A/S48A/V306I/V36M/Y140S/Y91S); assay: biochemical; format: binding

## CC[C@H](C)[C@H](NC(=O)[C@H](CC(C)C)NC(=O)[C@@H]1CCCN1C(=O)[C@H](CO)NC(=O)[C@H](Cc1ccc(O)cc1)NC(=O)[C@@H](N)Cc1c[nH]cn1)C(=O)N[C@@H](CC(C)C)C(=O)N[C@@H](C)C(=O)N[C@@H](CC(C)C)C(=O)O [HL9] (H-HYSPLILAL-OH)
HLA-A*24:02
  IC50: 64 nM

## CC[C@H](C)[C@H](NC(=O)[C@H](C)NC(=O)[C@H](CO)NC(=O)[C@H](CC(C)C)NC(=O)[C@H](CCC(N)=O)NC(=O)[C@@H]1CCCN1C(=O)[C@H](Cc1ccc(O)cc1)NC(=O)[C@@H](N)CC(C)C)C(=O)N[C@@H](C)C(=O)N[C@@H](CC(C)C)C(=O)O [LYPQLSAIAL, reference compound] (H-LYPQLSAIAL-OH)
HLA-B*07:02
  IC50: 134 nM

## CC[C@H](C)[C@H](NC(=O)[C@H](C)NC(=O)[C@H](CO)NC(=O)[C@H](CC(C)C)NC(=O)[C@@H](N)CCC(N)=O)C(=O)N[C@@H](C)C(=O)N[C@@H](CC(C)C)C(=O)NCC(=O)N[C@H](C(=O)O)C(C)C (H-QLSAIALGV-OH)
HLA-A*32:01
  IC50: 81 nM
HLA-A*02:03
  IC50: 4.4 nM
HLA-A*68:02
  IC50: 11 nM
HLA-A*02:06
  IC50: 12 nM
HLA-A*02:01
  IC50: 3.9 nM

## CC[C@H](C)[C@H](NC(=O)[C@H](C)NC(=O)[C@H](CO)NC(=O)[C@H](CC(C)C)NC(=O)[C@H](CCC(N)=O)NC(=O)[C@@H]1CCCN1C(=O)[C@H](Cc1ccc(O)cc1)NC(=O)[C@H](CC(C)C)NC(=O)CN)C(=O)O (H-GLYPQLSAI-OH)
HLA-A*02:03
  IC50: 1.4 nM
HLA-A*02:06
  IC50: 6.9 nM
HLA-A*02:01
  IC50: 5.9 nM

## RPKVPLRTM
[1]
  score on the t-SNE T2 axis (Mafa-A063 binding affinity and stability): scored high

## CC[C@H](C)[C@H](NC(=O)[C@H](Cc1ccccc1)NC(=O)[C@H](CCC(=O)O)NC(=O)[C@H](CC(C)C)NC(=O)[C@@H](NC(=O)[C@@H](N)[C@@H](C)O)C(C)C)C(=O)N[C@@H](CC(C)C)C(=O)N[C@@H](CCC(N)=O)C(=O)N[C@@H](CCCCN)C(=O)O (H-TVLEFILQK-OH)
HLA-A*03:01
  IC50: 19 nM
HLA-A*30:01
  IC50: 365 nM

## CC(C)[C@H](NC(=O)[C@H](CCCNC(=N)N)NC(=O)[C@H](C)NC(=O)[C@H](Cc1ccccc1)NC(=O)[C@@H]1CCCN1C(=O)[C@H](C)NC(=O)[C@H](Cc1ccc(O)cc1)NC(=O)[C@H](CCC(=O)O)NC(=O)CN)C(=O)O (H-GEYAPFARV-OH)
HLA-B*44:02
  IC50: 214 nM
HLA-B*40:01
  IC50: 107 nM

## GPRKPIKCW
[1]
  score on the t-SNE T2 axis (Mafa-A063 binding affinity and stability): scored high

## CC(C)C[C@H](NC(=O)[C@H](CCC(N)=O)NC(=O)[C@@H]1CCCN1C(=O)[C@H](Cc1ccc(O)cc1)NC(=O)[C@H](CC(C)C)NC(=O)CNC(=O)[C@H](Cc1c[nH]cn1)NC(=O)[C@H](CCC(=O)O)NC(=O)[C@@H](N)CC(C)C)C(=O)O (H-LEHGLYPQL-OH)
HLA-B*44:02
  IC50: 3.4 nM
HLA-B*40:01
  IC50: 14 nM

## CC(C)C[C@H](NC(=O)[C@H](CO)NC(=O)[C@H](CS)NC(=O)[C@H](Cc1ccccc1)NC(=O)[C@H](CO)NC(=O)[C@H](CC(C)C)NC(=O)[C@H](Cc1ccccc1)NC(=O)[C@@H](N)CC(C)C)C(=O)N[C@@H](Cc1ccccc1)C(=O)O [reference compound] (H-LFLSFCSLF-OH)
HLA-A*24:02
  IC50: 633 nM
HLA-A*23:01
  IC50: 33 nM

## CC(C)C[C@H](NC(=O)[C@H](Cc1ccccc1)NC(=O)[C@H](CC(C)C)NC(=O)[C@H](CO)NC(=O)[C@H](CS)NC(=O)[C@H](Cc1ccccc1)NC(=O)[C@H](CO)NC(=O)[C@H](CC(C)C)NC(=O)[C@@H](N)Cc1ccccc1)C(=O)O [reference compound] (H-FLSFCSLFL-OH)
HLA-A*02:03
  IC50: 29 nM
HLA-A*02:06
  IC50: 121 nM
HLA-A*02:01
  IC50: 1.8 nM

## HPAQTSQW
[1]
  score on the t-SNE T2 axis (Mafa-A063 binding affinity and stability): scored high

## CC[C@H](C)[C@H](NC(=O)[C@@H](N)CC(C)C)C(=O)N[C@H](C(=O)N[C@@H](CCCCN)C(=O)N[C@H](C(=O)N[C@H](C(=O)N[C@@H](CC(C)C)C(=O)N[C@@H](CCC(=O)O)C(=O)N[C@@H](Cc1ccccc1)C(=O)O)C(C)C)[C@@H](C)O)C(C)C (H-LIVKTVLEF-OH)
HLA-B*15:01
  IC50: 0.8 nM
HLA-A*23:01
  IC50: 109 nM
